The text below walks through data of ChEMBL document CHEMBL3507680, “University of Dundee, Gates Library screen for HepG2 cell viability”.

A short description of the data set: Human HepG2 cell viability assay in 384 well format. The data set is classed as toxicity, cell-based. Also noted: dose 125 nL, time 70.5 hour; cytotoxicity at 70.5 h: concentration not given beside the values. The note with it: HepG2 cells, read-out: Inhibition.
As for `c1cc2cc[nH]c2c(CC2CN(Cc3cncs3)C2)n1`, the cytotoxicity at 70.5 h amounted to 7.7%.

Take `CN(C)S(=O)(=O)N1CC(c2nc(N)ncc2-c2ccc(F)cc2)C1`: the cytotoxicity at 70.5 h is -0.38%.

With `CNc1cc(C2CN(C(=O)c3cnn(C)c3)CCO2)nc(C)n1` (configuration not stated), the cytotoxicity at 70.5 h is 13.9%.

In the case of `CNc1ncc(C(=O)N2CCOC(C(=O)Nc3ccccc3)C2)cn1` (configuration not stated), the cytotoxicity at 70.5 h is -2.73%.

For the molecule `CN1CCCC1c1cncc(C(=O)NCc2ccccc2)n1` (configuration not stated), the cytotoxicity at 70.5 h is -2.59%.

As to `O=C(Cc1cccnc1)N1CC(Cc2nccc3cc[nH]c23)C1`, the cytotoxicity at 70.5 h came to 6.89%.

In the case of `Cc1c(CCC(=O)N2CCOC(c3cnccn3)C2)cnn1C` (configuration not stated), the cytotoxicity at 70.5 h is -2.28%.

Turning to `Cc1cc2nccc(C3CCN(C(=O)c4ccccc4F)CC3)n2n1`, the cytotoxicity at 70.5 h is -4.04%.

For `Cc1cc(C)nc(N2CCCC2c2[nH]ncc2C(=O)N(C)C)n1` (configuration not stated), the cytotoxicity at 70.5 h is -3.67%.

Take `COCCC(=O)N1C[C@@H](c2ccccc2F)[C@@]2(CCCC(=O)N2)C1`: the cytotoxicity at 70.5 h was -7.07%.

Turning to `Oc1cc(-c2ccsc2)nc(C2CCN(Cc3ccncc3)CC2)n1`, the cytotoxicity at 70.5 h was -3.71%.

For `CN1CCCC1c1cncc(C(=O)NCC2CC2)n1` (configuration not stated), the cytotoxicity at 70.5 h was -6.82%.

For `CC(C)(C)OC(=O)N[C@@H]1C[C@@H](O)CN(C(=O)c2ccc(F)cc2)C[C@H]1O`, the cytotoxicity at 70.5 h was -2.5%.

Turning to `CNC(=O)C1(CCCc2ccccn2)CN(Cc2nccn2C)C1`, the cytotoxicity at 70.5 h is -9.75%.

As for `Cn1ccnc1CN1CCC(CCCc2ccccn2)(C(N)=O)CC1`, the cytotoxicity at 70.5 h is -13.4%.

For `Cc1cccc(CN2CCCC[C@H]3CN(c4ncccn4)C[C@H]32)c1`, the cytotoxicity at 70.5 h amounted to 5.5%.

`O=S(=O)(c1cn[nH]c1)N1C[C@@H](O)[C@H](N2CCc3ccccc3C2)C1`: the cytotoxicity at 70.5 h is -7.48%.

Turning to `Cc1ncsc1CN1CCOC(C)(C(=O)N(C)C)C1` (configuration not stated), the cytotoxicity at 70.5 h was found to be 20%.

In the case of `CNc1cc(C2CCCN2C(=O)CCc2cnn(C)c2C)ccn1` (configuration not stated), the cytotoxicity at 70.5 h is -8.49%.

`CC(C)(C)CN1CCCC(c2nccnc2Nc2cnccn2)C1` (configuration not stated): the cytotoxicity at 70.5 h was -12.3%.

Consider `c1cnc(CC2CCN(c3cnccn3)CC2)cn1`, for which the cytotoxicity at 70.5 h was -7.05%.

For the molecule `NC(=O)c1cnc(NC2CC2)nc1CCNC(=O)CC1CCCC1`, the cytotoxicity at 70.5 h is -14.3%.

With `CN1CCC(c2cccc(C(=O)N(C)C)n2)CC1`, the cytotoxicity at 70.5 h is -7.65%.

For the molecule `O=C(NC[C@H]1CC[C@H](c2ccnc3ncnn32)CC1)c1ccccn1`, the cytotoxicity at 70.5 h was -6.58%.

Take `N#Cc1cccc(CNc2ccc(F)cc2OCCO)c1`: the cytotoxicity at 70.5 h was -6.47%.

For the molecule `Cn1cc(C(=O)NCCc2csc(-c3ccccc3)n2)ccc1=O`, the cytotoxicity at 70.5 h was -2.1%.

For `Cc1cc(OCC(N)=O)ccc1NC(=O)C(C)Cc1ccccc1F` (configuration not stated), the cytotoxicity at 70.5 h is -2.1%.

Consider `Cc1ccc(C(=O)NS(=O)(=O)Cc2ccccc2)cc1S(C)(=O)=O`, for which the cytotoxicity at 70.5 h is -2.97%.

Turning to `CS(=O)(=O)c1cc(NC(=O)COc2ccccc2F)cc(C(=O)O)c1`, the cytotoxicity at 70.5 h was -2.84%.

`Cc1ccnc(N2CCCC(c3nncn3C3CC3)C2)n1` (configuration not stated): the cytotoxicity at 70.5 h was -2.88%.

Regarding `Cc1cccn2cc(CC(=O)N(CCN(C)C)CC3CCCO3)nc12` (configuration not stated), the cytotoxicity at 70.5 h is 17.3%.

Consider `CC(c1ccncc1)N(C)S(C)(=O)=O` (configuration not stated), for which the cytotoxicity at 70.5 h was -5.4%.

`CSCC(C)NS(=O)(=O)c1ccc(C)c(N(C)C)c1` (configuration not stated): the cytotoxicity at 70.5 h was -4.35%.

In the case of `Cc1ccc(C(O)CN(C)Cc2cnn(C)c2)cc1C` (configuration not stated), the cytotoxicity at 70.5 h is -1.99%.

With `CC(C)(C)c1ncc(C(=O)NCc2cccc(C(=O)N3CCCC3)c2)s1`, the cytotoxicity at 70.5 h was -1.76%.

On to `Cc1ccc(-c2nnc(CCC(=O)N3CCCC3c3ccc[nH]3)o2)cc1` (configuration not stated), for which the cytotoxicity at 70.5 h is -2%.

`COc1ccc(CNC(=O)Nc2ccc(S(=O)(=O)C(F)F)cc2)cc1`: the cytotoxicity at 70.5 h worked out at 8.9%.

In the case of `COc1ccc(Br)cc1NCC(=O)NC(C)(C#N)C1CC1` (configuration not stated), the cytotoxicity at 70.5 h stood at 2.31%.

As for `Cc1cccc(C(=O)N2CCCC2)c1NCC(=O)NC(C)(C#N)C1CC1` (configuration not stated), the cytotoxicity at 70.5 h was 28.8%.

As to `Cc1cccc(C(=O)N2CCCC2)c1NCC(=O)NC1(C#N)CCCC1`, the cytotoxicity at 70.5 h was -4.19%.

Regarding `O=C(COc1ccc2c(c1)CCCC2=O)NCc1ccco1`, the cytotoxicity at 70.5 h is -4.86%.

Regarding `CC(C)(Oc1ccc2c(c1)CCCC2=O)C(=O)NCc1ccco1`, the cytotoxicity at 70.5 h was -2.8%.

Regarding `CCCS(=O)(=O)C(C)C(=O)Nc1ccc2oc(C3CC3)nc2c1` (configuration not stated), the cytotoxicity at 70.5 h was -2.1%.

Take `Cc1c(C(=O)NCC(F)(F)F)nnn1-c1ccccc1Cl`: the cytotoxicity at 70.5 h is -3.49%.

`COc1cccc(C(C)N2CCN(S(C)(=O)=O)CC2)c1` (configuration not stated): the cytotoxicity at 70.5 h stood at 28.7%.

Turning to `CCn1ccnc1CN1CCCN(C(=O)c2ccc(C#N)cc2)CC1`, the cytotoxicity at 70.5 h was 0.738%.

Take `Cc1noc(OCc2csc(C)n2)n1`: the cytotoxicity at 70.5 h is -3.72%.

For `CC(C)S(=O)(=O)C(C)C(=O)Nc1ccc2oc(C3CC3)nc2c1` (configuration not stated), the cytotoxicity at 70.5 h was -2.28%.

In the case of `COc1ccncc1NC(=O)c1[nH]nc(C(C)C)c1Br`, the cytotoxicity at 70.5 h was -3.93%.

With `O=C1NCCCCC1SCc1coc(-c2cccc(F)c2)n1` (configuration not stated), the cytotoxicity at 70.5 h is -5.82%.

With `COc1ccc2nc(C3CC3)cc(C(=O)NCC(=O)N(C)C)c2c1`, the cytotoxicity at 70.5 h was -2.45%.

With `Cc1nc(C2CCN(S(=O)(=O)c3ccc4c(c3)CCC4)CC2)n[nH]1`, the cytotoxicity at 70.5 h was -2.6%.

On to `Cn1ccc(CNC(=O)Nc2ccc(S(=O)(=O)C(F)F)cc2)c1`, for which the cytotoxicity at 70.5 h is -2.09%.

In the case of `CC(=O)NC(Cc1c[nH]c2cc(F)ccc12)C(=O)Nc1nonc1C` (configuration not stated), the cytotoxicity at 70.5 h is 22%.

Consider `CC(C#N)CNC(=O)Nc1ccc(-c2cc[nH]n2)cc1` (configuration not stated), for which the cytotoxicity at 70.5 h was -1.44%.

In the case of `COc1ccc2nc(C3CC3)cc(C(=O)NCCc3nnc[nH]3)c2c1`, the cytotoxicity at 70.5 h is -3.73%.

As for `CC(C)c1cc(C(=O)N(c2ccc(F)cn2)C2CCOCC2)on1`, the cytotoxicity at 70.5 h was found to be 1.54%.

With `CC(C#N)CNC(=O)Nc1ccc(-c2ccc[nH]2)cc1` (configuration not stated), the cytotoxicity at 70.5 h is -0.22%.

In the case of `CS(=O)(=O)c1ccc(NCc2ccccc2)cn1`, the cytotoxicity at 70.5 h was -2.92%.

Turning to `CC(C)(Oc1ccc(F)cc1)C(=O)NCc1ccco1`, the cytotoxicity at 70.5 h was -2.11%.

For the molecule `CC(NC(=O)N1CCC2(C1)OCCO2)c1ccc(F)cc1Cl` (configuration not stated), the cytotoxicity at 70.5 h came out at 4.97%.

Turning to `Cc1nc(COc2nc(C(C)C)no2)cs1`, the cytotoxicity at 70.5 h is -5.35%.

For `O=C(c1cccc(O)c1)N1CCN(Cc2nnc(C3CCC3)o2)CC1`, the cytotoxicity at 70.5 h worked out at 23.6%.

Turning to `Cc1nc(C)n(CC2CCCCN2c2ccnc(-c3ccccc3)n2)n1` (configuration not stated), the cytotoxicity at 70.5 h amounted to 5.38%.

With `CN(C)CCN(C)S(=O)(=O)CC1CCOCC1`, the cytotoxicity at 70.5 h is -7.41%.

As to `CC(OCC1CC1)C(=O)NCc1cccc(CN2CCCC2=O)c1` (configuration not stated), the cytotoxicity at 70.5 h is 1.05%.

For `O=C(COC1CCCCC1)Nc1ccn(Cc2ccccn2)n1`, the cytotoxicity at 70.5 h was -5.54%.

Regarding `CC(C)(C)c1ccc2c(c1)CCN2C(=O)c1ccc(=O)[nH]n1`, the cytotoxicity at 70.5 h is -5.53%.

As to `CC(C)(C)n1c(NC(=O)CNC(=O)NC2CC2)nc2ccccc21`, the cytotoxicity at 70.5 h came out at 1.24%.

Regarding `c1cc(CC2CCCNC2)nc(NCCc2cnccn2)c1` (configuration not stated), the cytotoxicity at 70.5 h is -11.1%.

`CCc1nccn1-c1cncc(C2CCCN2)n1` (configuration not stated): the cytotoxicity at 70.5 h was -8.79%.

With `COc1cccc(Nc2nc(-c3ccncc3)nc3c2CNCC3)c1`, the cytotoxicity at 70.5 h was 24.2%.
